Assay results published in ChEMBL document CHEMBL1121668, “(Phenylthio)phenylamine derivatives as potential antiinflammatory compounds” (J Med Chem, 1981).

What was measured:
[1] = Lethal dose is determined in mice (iv); format: toxicity, organism-based; details: mouse, in vivo
[2] = Lethal dose is determined in mice (po); format: toxicity, organism-based; details: mouse, in vivo
Rattus norvegicus [3] = assay: Compound is evaluated for antiinflammatory activity using carrageenan-induced paw edema method in rat at a dose 5 mg/kg ip after 1 hr; format: functional; details: route intraperitoneal
Rattus norvegicus [4] = assay: Compound is evaluated for antiinflammatory activity using carrageenan-induced paw edema method in rat at a dose 5 mg/kg ip after 2 hr; format: functional; details: route intraperitoneal
Rattus norvegicus [5] = assay: Compound is evaluated for antiinflammatory activity using carrageenan-induced paw edema method in rat at a dose 5 mg/kg ip after 3h; format: functional; details: route intraperitoneal
Rattus norvegicus [6] = assay: Compound is evaluated for antiinflammatory activity using carrageenan-induced paw edema method in rat at a dose 500 mg/kg ip after 1 hr; format: functional; details: route intraperitoneal
Rattus norvegicus [7] = assay: Compound is evaluated for antiinflammatory activity using carrageenan-induced paw edema method in rat at a dose 500 mg/kg ip after 2 hr; format: functional; details: route intraperitoneal
Rattus norvegicus [8] = assay: Compound is evaluated for antiinflammatory activity using carrageenan-induced paw edema method in rat at a dose 500 mg/kg ip after 3h; format: functional; details: route intraperitoneal
Rattus norvegicus [9] = assay: Compound is evaluated for antiinflammatory activity using carrageenan-induced paw edema method in rat at a dose 200 mg/kg po after 1 hr; format: functional
Rattus norvegicus [10] = assay: Compound is evaluated for antiinflammatory activity using carrageenan-induced paw edema method in rat at a dose 200 mg/kg po after 2 hr; format: functional
Rattus norvegicus [11] = assay: Compound is evaluated for antiinflammatory activity using carrageenan-induced paw edema method in rat at a dose 200 mg/kg po after 3h; format: functional
Rattus norvegicus [12] = assay: Compound is evaluated for antiinflammatory activity using carrageenan-induced paw edema method in rat at a dose 25 mg/kg ip after 1 hr; format: functional; details: route intraperitoneal
Rattus norvegicus [13] = assay: Compound is evaluated for antiinflammatory activity using carrageenan-induced paw edema method in rat at a dose 25 mg/kg ip after 2 hr; format: functional; details: route intraperitoneal
Rattus norvegicus [14] = assay: Compound is evaluated for antiinflammatory activity using carrageenan-induced paw edema method in rat at a dose 25 mg/kg ip after 3h; format: functional; details: route intraperitoneal
Rattus norvegicus [15] = assay: Compound is evaluated for antiinflammatory activity using carrageenan-induced paw edema method in rat at a dose 30 mg/kg ip after 2 hr; format: functional; details: route intraperitoneal
Rattus norvegicus [16] = assay: Compound is evaluated for antiinflammatory activity using carrageenan-induced paw edema method in rat at a dose 30 mg/kg ip after 3h; format: functional; details: route intraperitoneal
Rattus norvegicus [17] = assay: Compound is evaluated for antiinflammatory activity using carrageenan-induced paw edema method in rat at a dose 30 mg/kg ip after 1 hr; format: functional; details: route intraperitoneal
Rattus norvegicus [18] = assay: Compound is evaluated for antiinflammatory activity using carrageenan-induced paw edema method in rat at a dose 10 mg/kg ip after 1 hr; format: functional; details: route intraperitoneal
Rattus norvegicus [19] = assay: Compound is evaluated for antiinflammatory activity using carrageenan-induced paw edema method in rat at a dose 10 mg/kg ip after 2 hr; format: functional; details: route intraperitoneal
Rattus norvegicus [20] = assay: Compound is evaluated for antiinflammatory activity using carrageenan-induced paw edema method in rat at a dose 10 mg/kg ip after 3h; format: functional; details: route intraperitoneal

## CCN(CC)CC(=O)N(C)c1ccc(Sc2ccccc2)cc1
[1]
  LD50: 30 mg/kg
[2]
  LD50: 140 mg/kg
Rattus norvegicus [3]
  Reduction: 53%
Rattus norvegicus [4]
  Reduction: 50%
Rattus norvegicus [5]
  Reduction: 52%

## CN(C(=O)C1CC1)c1ccc(Sc2ccccc2)cc1
[1]
  LD50: > 1000 mg/kg
Rattus norvegicus [6]
  Reduction: 57%
Rattus norvegicus [7]
  Reduction: 48%
Rattus norvegicus [8]
  Reduction: 37%

## CN(C(=O)c1ccc(Cl)cc1)c1ccc(Sc2ccccc2)cc1
[1]
  LD50: > 1000 mg/kg
Rattus norvegicus [6]
  Reduction: 65%
Rattus norvegicus [7]
  Reduction: 60%
Rattus norvegicus [8]
  Reduction: 48%

## CN(C(=O)C1CN(c2ccccc2)C(=O)C1=O)c1ccc(Sc2ccccc2)cc1 (stereo unspecified)
[2]
  LD50: > 1000 mg/kg
Rattus norvegicus [9]
  Reduction: 36%
Rattus norvegicus [10]
  Reduction: 5%
Rattus norvegicus [11]
  Reduction: 0%

## CC(C)N1CC(C(=O)N(C)c2ccc(Sc3ccccc3)cc2)C(=O)C1=O (stereo unspecified)
[2]
  LD50: > 1000 mg/kg
Rattus norvegicus [9]
  Reduction: 30%
Rattus norvegicus [10]
  Reduction: 26%
Rattus norvegicus [11]
  Reduction: 18%

## CCN(CC)CC(=O)Nc1ccc(Sc2ccccc2)cc1
[1]
  LD50: 45 mg/kg
[2]
  LD50: 275 mg/kg
Rattus norvegicus [12]
  Reduction: 30%
Rattus norvegicus [13]
  Reduction: 47%
Rattus norvegicus [14]
  Reduction: 22%

## CN(C(=O)CN1CCCCC1)c1ccc(Sc2ccccc2)cc1
[1]
  LD50: 25 mg/kg
Rattus norvegicus [3]
  Reduction: 40%
Rattus norvegicus [4]
  Reduction: 29%
Rattus norvegicus [5]
  Reduction: 34%

## CC(=O)Oc1ccccc1C(=O)N(C)c1ccc(Sc2ccccc2)cc1
[1]
  LD50: 1000 mg/kg
Rattus norvegicus [6]
  Reduction: 59%
Rattus norvegicus [7]
  Reduction: 55%
Rattus norvegicus [8]
  Reduction: 32%

## CN1CC(C(=O)N(C)c2ccc(Sc3ccccc3)cc2)C(=O)C1=O (stereo unspecified)
[1]
  LD50: > 1000 mg/kg
Rattus norvegicus [9]
  Reduction: 36%
Rattus norvegicus [10]
  Reduction: 0%
Rattus norvegicus [11]
  Reduction: 0%

## CCN(CC)CC(=O)Nc1ccc(Sc2ccc(Cl)cc2)cc1
[1]
  LD50: 45 mg/kg
[2]
  LD50: 275 mg/kg
Rattus norvegicus [12]
  Reduction: 56%
Rattus norvegicus [13]
  Reduction: 74%
Rattus norvegicus [14]
  Reduction: 72%

## CCN(CC)CC(=O)Nc1ccccc1Sc1ccc(Cl)cc1
[1]
  LD50: 55 mg/kg
[2]
  LD50: 35 mg/kg
Rattus norvegicus [15]
  Reduction: 63%
Rattus norvegicus [16]
  Reduction: 68%
Rattus norvegicus [17]
  Reduction: 65%

## CN(C)CC(=O)N(C)c1ccc(Sc2ccccc2)cc1
[1]
  LD50: 50 mg/kg
Rattus norvegicus [3]
  Reduction: 18%
Rattus norvegicus [4]
  Reduction: 14%
Rattus norvegicus [5]
  Reduction: 22%

## CCN(CC)CC(=O)N(C)c1ccc(Sc2ccc(Cl)cc2)cc1
[1]
  LD50: 45 mg/kg
[2]
  LD50: 175 mg/kg
Rattus norvegicus [18]
  Reduction: 13%
Rattus norvegicus [19]
  Reduction: 15%
Rattus norvegicus [20]
  Reduction: 0%

## CN(C(=O)CN1CCOCC1)c1ccc(Sc2ccccc2)cc1
[1]
  LD50: 75 mg/kg
Rattus norvegicus [18]
  Reduction: 55%
Rattus norvegicus [19]
  Reduction: 45%
Rattus norvegicus [20]
  Reduction: 43%

## CCOC(=O)C1=C(Nc2ccc(Sc3ccccc3)cc2)C(=O)N(C(C)C)C1
[2]
  LD50: > 1000 mg/kg
Rattus norvegicus [9]
  Reduction: 22%
Rattus norvegicus [10]
  Reduction: 30%
Rattus norvegicus [11]
  Reduction: 30%

## CN(C(=O)CN1CCCC1)c1ccc(Sc2ccccc2)cc1
[1]
  LD50: 35 mg/kg
Rattus norvegicus [3]
  Reduction: 18%
Rattus norvegicus [4]
  Reduction: 18%
Rattus norvegicus [5]
  Reduction: 23%

## CN1CCN(CC(=O)N(C)c2ccc(Sc3ccccc3)cc2)CC1
[1]
  LD50: 75 mg/kg
Rattus norvegicus [18]
  Reduction: 45%
Rattus norvegicus [19]
  Reduction: 30%
Rattus norvegicus [20]
  Reduction: 38%

## COc1ccc2c(c1)c(CC(=O)O)c(C)n2C(=O)c1ccc(Cl)cc1 [INDOMETHACIN]
Rattus norvegicus [18]
  Reduction: 61%
Rattus norvegicus [19]
  Reduction: 65%
Rattus norvegicus [20]
  Reduction: 67%
